System: L6 rat myoblasts
Assay: OCR Seahorse assay (oxygen consumption rate, mitochondrial uncoupling)
Details: for % of BAM15 OCR / uncoupling (OCR) activity in words / cellular toxicity in OCR assay: L6 myoblasts; for % of BAM15 OCR / Emax at 200 µM: integrated area under OCR dose curve above baseline relative to BAM15 of same experiment; for Emax at 200 µM: L6, read-out: % of BAM15 OCR, L6 myoblasts; for cellular toxicity in OCR assay: at higher concentrations
[1] = NA = No Activity, highest tested concentration 200 μM
[2] = OCR in L6 myoblasts, NA = No Activity, highest tested concentration 200 μM
[3] = Rattus norvegicus, NA = No Activity, highest tested concentration 200 μM

Experimental: With 7 and 9 derivatives in hand, we screened for mitochondrial uncoupling activity as a function of oxygen consumption rate (OCR). […] OCR was measured using an Agilent Seahorse XF24 or XFe96 Analyzer (Agilent Technologies, Santa Clara, CA). L6 myoblasts were seeded in a Seahorse 24 or 96-well tissue culture plate at a density of 3.5 × 10^4 cells/well. The cells were then allowed to adhere overnight. […] Compounds were injected during the assay, and OCR was measured using 2 min measurement periods. Cells were treated with a single drug concentration per well and measured over a 90 min period. Two wells were used per condition and, where applicable, results from multiple plates were averaged together. The first three measurements after injection for each concentration were averaged to produce a dose curve. […] AUC values were also calculated using the same software.

Row | Compound | EC50 (Rattus norvegicus, L6) | Emax at 200 µM [3] | other results
1 | 6-((4-Butoxyphenyl)amino)-[1,2,5]oxadiazolo[3,4-b]pyridin-7-ol [7f] |  |  | % of BAM15 OCR [1]: 20%; EC50 [2]: 6 µM
2 | 6-([1,1′-Biphenyl]-2-ylamino)-[1,2,5]oxadiazolo[3,4-b]pyridin-7-ol [7aj] |  |  | % of BAM15 OCR [1]: 20%; EC50 [2]: 6 ± 1.2 µM
3 | Oc1c(Nc2ccccc2)cnc2nonc12 [7a, 6-(Phenylamino)-[1,2,5]oxadiazolo[3,4-b]pyridin-7-ol] | 59 ± 3.4 µM | 40% | 
4 | Oc1c(Nc2cccc(Cl)c2F)cnc2nonc12 [7aa, 6-((3-Chloro-2-fluorophenyl)amino)-[1,2,5]oxadiazolo[3,4-b]pyridin-7-ol] | 32 ± 1.9 µM | 68% | 
5 | Oc1c(Nc2cccc(C(F)(F)F)c2F)cnc2nonc12 [7ab, 6-((2-Fluoro-3-(trifluoromethyl)phenyl)amino)-[1,2,5]oxadiazolo[3,4-b]pyridin-7-ol] | 43 ± 5.2 µM | 71% | 
6 | Oc1c(Nc2cc(C(F)(F)F)ccc2F)cnc2nonc12 [7ac, 6-((2-Fluoro-5-(trifluoromethyl)phenyl)amino)-[1,2,5]oxadiazolo[3,4-b]pyridin-7-ol] | 11 ± 6.7 µM | 55% | 
7 | Oc1c(Nc2c(F)cccc2C(F)(F)F)cnc2nonc12 [7ad, 6-((2-Fluoro-6-(trifluoromethyl)phenyl)amino)-[1,2,5]oxadiazolo[3,4-b]pyridin-7-ol] | 28 ± 3.9 µM | 55% | 
8 | Oc1c(Nc2cc(C(F)(F)F)c(F)cc2F)cnc2nonc12 [7ae, 6-((2,4-Difluoro-5-(trifluoromethyl)phenyl)amino)-[1,2,5]oxadiazolo[3,4-b]pyridin-7-ol] | 40 ± 4.5 µM | 48% | 
9 | Oc1c(Nc2cc(F)ccc2C(F)(F)F)cnc2nonc12 [7af, 6-((5-Fluoro-2-(trifluoromethyl)phenyl)amino)-[1,2,5]oxadiazolo[3,4-b]pyridin-7-ol] | 25 ± 12 µM | 54% | 
10 | Oc1c(Nc2cc(F)cc(C(F)(F)F)c2)cnc2nonc12 [7ag, 6-((3-Fluoro-5-(trifluoromethyl)phenyl)amino)-[1,2,5]oxadiazolo[3,4-b]pyridin-7-ol] | 40 ± 0.9 µM | 38% | 
11 | Oc1c(Nc2ccc(-c3ccccc3)cc2F)cnc2nonc12 [7ah, 6-((3-Fluoro-[1,1′-biphenyl]-4-yl)amino)-[1,2,5]oxadiazolo[3,4-b]pyridin-7-ol] | 2 ± 0.5 µM | 10% | 
12 | Oc1c(Nc2ccc(-c3ccccc3F)cc2)cnc2nonc12 [7ak, 6-((2′-Fluoro-[1,1′-biphenyl]-4-yl)amino)-[1,2,5]oxadiazolo[3,4-b]pyridin-7-ol] |  |  | uncoupling (OCR) activity in words: not tolerated
13 | Oc1c(Nc2ccc(-c3cccc(C(F)(F)F)c3)cc2)cnc2nonc12 [7an, 6-((3′-(Trifluoromethyl)-[1,1′-biphenyl]-4-yl)amino)-[1,2,5]oxadiazolo[3,4-b]pyridin-7-ol] | 0.5 ± 0.1 µM | 25% | cellular toxicity in OCR assay: showed cellular toxicity at higher concentrations
14 | Oc1c(Nc2ccc(-c3ccc(C(F)(F)F)cc3)cc2)cnc2nonc12 [7aq, 6-((4′-(Trifluoromethyl)-[1,1′-biphenyl]-4-yl)amino)-[1,2,5]oxadiazolo[3,4-b]pyridin-7-ol] |  |  | uncoupling (OCR) activity in words: not tolerated; cellular toxicity in OCR assay: exhibited toxicity
15 | Oc1c(Nc2ccc(-c3ccc(C(F)(F)F)nc3)cc2)cnc2nonc12 [7ar, 6-((4-(6-(Trifluoromethyl)pyridin-3-yl)phenyl)amino)-[1,2,5]oxadiazolo[3,4-b]pyridin-7-ol] | 7 ± 1.9 µM | 17% | 
16 | Oc1c(Nc2ccc(-c3cc(C(F)(F)F)cc(C(F)(F)F)c3)cc2)cnc2nonc12 [7aw, 6-((3′,5′-Bis(trifluoromethyl)-[1,1′-biphenyl]-4-yl)amino)-[1,2,5]oxadiazolo[3,4-b]pyridin-7-ol] | 41 ± 4.9 µM | 20% | 
17 | Oc1c(Nc2ccc3ccccc3c2)cnc2nonc12 [7ax, 6-(Naphthalen-2-ylamino)-[1,2,5]oxadiazolo[3,4-b]pyridin-7-ol] | 13 ± 1.2 µM | 48% | 
18 | Cc1ccc(Nc2cnc3nonc3c2O)cc1 [7b, 6-(p-Tolylamino)-[1,2,5]oxadiazolo[3,4-b]pyridin-7-ol] | 49 µM | 38% | 
19 | CCc1ccc(Nc2cnc3nonc3c2O)cc1 [7c, 6-((4-Ethylphenyl)amino)-[1,2,5]oxadiazolo[3,4-b]pyridin-7-ol] | 14 ± 1.7 µM | 50% | 
20 | CCCCc1ccc(Nc2cnc3nonc3c2O)cc1 [7d, 6-((4-Butylphenyl)amino)-[1,2,5]oxadiazolo[3,4-b]pyridin-7-ol] |  | 19% | 
21 | CC(C)(C)c1ccc(Nc2cnc3nonc3c2O)cc1 [7e, 6-((4-(tert-Butyl)phenyl)amino)-[1,2,5]oxadiazolo[3,4-b]pyridin-7-ol] | 2 ± 0.4 µM | 7% | 
22 | CC(C)(C#N)c1ccc(Nc2cnc3nonc3c2O)cc1 [7g, 2-(4-((7-Hydroxy-[1,2,5]oxadiazolo[3,4-b]pyridin-6-yl)amino)phenyl)-2-methylpropanenitrile] | > 100 µM | 10% | 

Row | Compound | EC50 (Rattus norvegicus, L6) | Emax at 200 µM [3] | other results
23 | Oc1c(Nc2ccc(SC(F)(F)F)cc2)cnc2nonc12 [7h, 6-((4-((Trifluoromethyl)thio)phenyl)amino)-[1,2,5]oxadiazolo[3,4-b]pyridin-7-ol] | 6 ± 0.4 µM | 38% | 
24 | Oc1c(Nc2ccc(F)nc2)cnc2nonc12 [7k, 6-((6-Fluoropyridin-3-yl)amino)-[1,2,5]oxadiazolo[3,4-b]pyridin-7-ol] |  |  | uncoupling (OCR) activity in words: inactive
25 | Oc1c(-c2ccc(C(F)(F)F)nc2)cnc2nonc12 [7l, 6-(6-(Trifluoromethyl)pyridin-3-yl)-[1,2,5]oxadiazolo[3,4-b]pyridin-7-ol] |  |  | uncoupling (OCR) activity in words: inactive
26 | Oc1c(Nc2ccccc2F)cnc2nonc12 [7m, 6-((2-Fluorophenyl)amino)-[1,2,5]oxadiazolo[3,4-b]pyridin-7-ol] | 32 ± 1.8 µM | 69% | increase of BAM15 uncoupling capability compared with the nonsubstituted aniline (7m versus 7a): 72%
27 | Oc1c(Nc2cccc(F)c2)cnc2nonc12 [7n, 6-((3-Fluorophenyl)amino)-[1,2,5]oxadiazolo[3,4-b]pyridin-7-ol] | 51 ± 2.6 µM | 55% | 
28 | Oc1c(Nc2ccc(F)cc2)cnc2nonc12 [7o, 6-((4-Fluorophenyl)amino)-[1,2,5]oxadiazolo[3,4-b]pyridin-7-ol] | > 100 µM | 32% | 
29 | Oc1c(Nc2ccccc2Cl)cnc2nonc12 [7p, 6-((2-Chlorophenyl)amino)-[1,2,5]oxadiazolo[3,4-b]pyridin-7-ol] | 27 ± 1.9 µM | 69% | 
30 | Oc1c(Nc2ccccc2C(F)(F)F)cnc2nonc12 [7q, 6-((2-(Trifluoromethyl)phenyl)amino)-[1,2,5]oxadiazolo[3,4-b]pyridin-7-ol] | 34 ± 4 µM | 57% | 
31 | Oc1c(Nc2cccc(C(F)(F)F)c2)cnc2nonc12 [7r, 6-((3-(Trifluoromethyl)phenyl)amino)-[1,2,5]oxadiazolo[3,4-b]pyridin-7-ol] | 22 ± 1.8 µM | 48% | 
32 | Oc1c(Nc2ccc(C(F)(F)F)cc2)cnc2nonc12 [7s, 6-((4-(Trifluoromethyl)phenyl)amino)-[1,2,5]oxadiazolo[3,4-b]pyridin-7-ol] | 35 ± 1.7 µM | 43% | 
33 | Oc1c(Nc2cccc(F)c2F)cnc2nonc12 [7t, 6-((2,3-Difluorophenyl)amino)-[1,2,5]oxadiazolo[3,4-b]pyridin-7-ol] | 64 ± 3.3 µM | 60% | 
34 | Oc1c(Nc2ccc(F)cc2F)cnc2nonc12 [7u, 6-((2,4-Difluorophenyl)amino)-[1,2,5]oxadiazolo[3,4-b]pyridin-7-ol] | 40 ± 1.9 µM | 83% | 
35 | Oc1c(Nc2cc(F)ccc2F)cnc2nonc12 [7v, 6-((2,5-Difluorophenyl)amino)-[1,2,5]oxadiazolo[3,4-b]pyridin-7-ol] | 64 ± 5.3 µM | 69% | 
36 | Oc1c(Nc2c(F)cccc2F)cnc2nonc12 [7w, 6-((2,6-Difluorophenyl)amino)-[1,2,5]oxadiazolo[3,4-b]pyridin-7-ol] | 52 ± 8.8 µM | 54% | 
37 | Oc1c(Nc2ccc(F)c(F)c2)cnc2nonc12 [7x, 6-((3,4-Difluorophenyl)amino)-[1,2,5]oxadiazolo[3,4-b]pyridin-7-ol] | 63 ± 3.7 µM | 55% | 
38 | Oc1c(Nc2ccc(F)c(F)c2F)cnc2nonc12 [7y, 6-((2,3,4-Trifluorophenyl)amino)-[1,2,5]oxadiazolo[3,4-b]pyridin-7-ol] | 44 ± 3.6 µM | 68% | 
39 | Oc1c(Nc2c(F)c(F)c(F)c(F)c2F)cnc2nonc12 [7z, 6-((Perfluorophenyl)amino)-[1,2,5]oxadiazolo[3,4-b]pyridin-7-ol] | 18 ± 2.4 µM | 50% | 
40 | Oc1c(-c2ccccc2F)cnc2nonc12 [9a, 6-(2-Fluorophenyl)-[1,2,5]oxadiazolo[3,4-b]pyridin-7-ol] | 27 ± 2.8 µM | 69% | 
41 | Oc1c(-c2ccccc2Cl)cnc2nonc12 [9b, 6-(2-Chlorophenyl)-[1,2,5]oxadiazolo[3,4-b]pyridin-7-ol] | 85 ± 16 µM | 49% | 
42 | Oc1c(-c2cccc(Cl)c2)cnc2nonc12 [9c, 6-(3-Chlorophenyl)-[1,2,5]oxadiazolo[3,4-b]pyridin-7-ol] | 25 ± 3.1 µM | 61% | 
43 | Oc1c(-c2cccc(C(F)(F)F)c2)cnc2nonc12 [9d, 6-(3-(Trifluoromethyl)phenyl)-[1,2,5]oxadiazolo[3,4-b]pyridin-7-ol] | 26 ± 4.5 µM | 59% | cellular toxicity in OCR assay: exhibited cellular toxicity at higher concentrations
44 | Oc1c(-c2ccc(Cl)cc2)cnc2nonc12 [9e, 6-(4-Chlorophenyl)-[1,2,5]oxadiazolo[3,4-b]pyridin-7-ol] | 12 ± 0.6 µM | 52% | 

Reference: publication PMC11647902, “Design, Synthesis, and Biological Evaluation of [1,2,5]Oxadiazolo[3,4-b]pyridin-7-ol as Mitochondrial Uncouplers for the Treatment of Obesity and Metabolic Dysfunction-Associated Steatohepatitis” (Journal of Medicinal Chemistry, 2024)
